The values that follow come from patent publication US20260273028A1, “PEROXIDASE COMPOSITIONS CONTAINING IMPROVED ENHANCING AGENTS” (FLEN HEALTH PHARMA NV, priority 2022, published 2026).

In series [1] the test system is Pseudomonas aeruginosa ATCC®9027™. As to the kind of experiment: MBC determination, broth microdilution with CFU enumeration. The format is cell-based. Conditions: P. aeruginosa. As for the experimental part: (§1) The minimal bactericidal concentration (MBC) is defined as the lowest concentration of an antimicrobial agent that results in a complete killing of the microbial population (determined via standard CFU enumeration techniques) after overnight incubation. This endpoint measurement is used, together with the MIC (see above), to define the microbial susceptibility towards an antimicrobial agent. Here, the antimicrobial agent is a combination of the natural enzymes GOX+LPO.
(§2) To determine the MBC of the described combinations, a classical broth microdilution assay combined with standard CFU enumeration techniques was used to determine the susceptibility of a series of microbes commonly detected in infected wounds, including (a) the Gram-positive bacterium Staphylococcus aureus ATCC® 6538™ (results shown below), (b) the Gram-negative bacterium Pseudomonas aeruginosa ATCC®9027™ (results shown below), (c) the yeast Candida albicans ATCC®10231™ (results shown below), and (d) the fungus Aspergillus niger ATCC®16404™ (results shown below). In brief, the broth microdilution assay was set up as previously described (see 2.1). After incubation, the MBC was determined by investigating the presence of viable microorganisms at the MIC and following higher concentrations (MICx2, MICx4, and so on) using standard CFU enumeration techniques. For each combination evaluated, this test was repeated at least 5 times. The collected data were further analyzed in MS Excel. Mean concentration data (expressed as log CFU/ml) were visualized in a table format in which the MBC was highlighted.
For orientation: Dilution methods test growth across graded concentrations, often in twofold steps.

For series [2], the system named is Aspergillus niger ATCC®16404™. Described as above. The format is cell-based. The following applies: A. niger; enhancer 1%-0.01%. As for the experimental part:
as §1, §2

For series [3] the following is noted: exemplary values; cited from earlier work.
In the next series the test system is S. aureus (ATCC®6538™). In words: Microbial challenge testing in alginogel with GOX+LPO. The format is cell-based. Conditions: for reduction in absolute S. aureus counts compared to guaiacol in the same concentration: alginogel with GOX+LPO, enhancer 0.0005%; for antimicrobial activity of enhancing candidate only against S. aureus: alginogel without enzymes, highest concentration tested; for reduction in absolute S. aureus counts compared to reference (enzymes only): alginogel, 0.0075% GOX+LPO. The protocol:
To determine the ability of an antimicrobial agent to elicit an antimicrobial preserving efficacy in a gel environment, a microbiological challenge test can be performed. Here, the antimicrobial agent is a combination of the natural enzymes GOX+LPO. […] Microbial challenge testing was performed according to the method described in the European Pharmacopoeia current version chapter 5.1.3 ‘Efficacy of antimicrobial preservation’, but with adapted time points (0, 10, 20, 30, 40, 50, 60, 70 and 80 min instead of 0, 2, 7, 14 and 28 days). In brief, for every enhancing agent to be evaluated, a lab-scale alginogel (based on the Flaminal® formulation, but without the original enhancer guaiacol) including 0.0075% GOX+LPO (1:1) was prepared according to standard practices. Enhancing agents were added to the alginogel in a final concentration ranging from 0.01 to 0,00025% (v/w). As a reference, an alginogel including 0.0075% GOX+LPO (1:1) without the addition of any enhancing agent was included (designated as: enzymes only). As a control, an alginogel without both GOX+LPO (1:1) enzyme solution and enhancing agent (designated as: empty gel) as well as an alginogel only containing the enhancing agent only (designated as: enhancing candidate only) were included. After preparation, a homogenous sample of 10 g was transferred into a 50 ml conical tube for each alginogel to be evaluated and microorganism to be tested. For each test microorganism, including S. aureus (ATCC®6538™), P. aeruginosa (ATCC®9027™), C. albicans (ATCC®10231™) and A. niger (ATCC®16404 ™), a microbial suspension of about 10^8 CFU/ml was prepared in sterile diluent (buffered sodium chloride-peptone solution). Then, the 50 ml conical tubes containing the alginogel samples to be evaluated were inoculated with 100 μl of the designated inoculum. At the start (time point 0) and after 0, 10, 20, 30, 40, 50, 60, 70 and 80 min, the number of viable microorganisms per gram product (expressed as CFU/g) was determined by transferring a sample of 0.5 g of the product into a 15 ml conical tube containing 4.5 ml of sterile diluent and applying general dilution and plate count techniques. For each combination evaluated, this test was repeated at least 1-3 times. The collected data were further analyzed in MS Excel. Mean absolute counts (expressed as log CFU/g) were visualized in a graph.
The purpose of the hereby described experiment was to compare the efficacy of antimicrobial activity enhancement of the GOX+LPO (1:1) enzyme combination by ethanolamine and proline in a microbial challenge test using S. aureus. The test was set up as described in the section on ‘challenge testing’ in Example 2.4. The test was repeated at least 3 times.
The purpose of the hereby described experiment was to compare the efficacy of antimicrobial activity of the GOX+LPO (1:1) enzyme combination in the presence of potassium chloride/potassium bromide and potassium iodide. A microbial challenge test using S. aureus was performed. The test was set up as described in the section on ‘challenge testing’ in Example 2.4.

For series [4], the system named is Pseudomonas aeruginosa ATCC®9027™. As to the kind of experiment: Absolute microbial counts in function of enzyme solution concentration. The following applies: for reduction in absolute P. aeruginosa counts compared to reference and guaiacol solution: 0.005%-0.0000391% (v/v) GOX+LPO. The format is cell-based. An excerpt: (§3) Absolute microbial counts in function of concentration of the antimicrobial agent tested are useful to monitor the bactericidal and fungicidal efficacy of that agent.
(§4) To determine the absolute number of live microorganisms in function of different enzyme solution concentrations tested, a classical broth microdilution assay combined with standard CFU enumeration techniques was used to determine the susceptibility of a series of microbes commonly detected in infected wounds, including (a) the Gram-positive bacterium Staphylococcus aureus ATCC® 6538™ (results shown below), (b) the Gram-negative bacterium Pseudomonas aeruginosa ATCC®9027™ (results shown below), (c) the yeast Candida albicans ATCC®10231™ (results shown below), and (d) the fungus Aspergillus niger ATCC®16404™ (results shown below). In brief, the broth microdilution assay was set up as previously described (see 2.1). After incubation, the absolute microbial count at the MIC and following higher concentrations (MICx2, MICx4, and so on) was determined using standard CFU enumeration techniques. For each combination evaluated, this test was repeated at least 5 times. The collected data were further analyzed in MS Excel and expressed as log CFU/ml. Mean results were plotted in function of enzyme solution concentration.

Series [5] deals with Aspergillus niger ATCC®16404™. The series is described as above. Conditions: enhancer 1-0.01%; 0.005%-0.000156% (v/v) GOX+LPO. The format is cell-based.
Excerpt: as §3, §4

As to `N[C@@H](CO)C(=O)O` [Serine, serine], the entries for the “MBC: GOX+LPO enzyme solution needed” value in series [1] (enhancer 0.0025-0.00125%), in series [1] (enhancer 0.01-0.005%) and in series [2] were 0.000625 % (v/v), 0.000625 % (v/v) and 0.000156 % (v/v), respectively. Further, the “increase in MBC compared to reference or guaiacol solution” value in series [1] (enhancer 0.0025-0.00125%) and in series [1] (enhancer 0.01-0.005%) was 2 × each time. In addition, in series [2], the “increase in MBC compared to reference” value stood at 2 ×. For the same molecule, in series [3], the “LogP (octanol/water partition coefficient)” value is “LogP = −3.07”. In the series with S. aureus (ATCC®6538™), the “reduction in absolute S. aureus counts compared to guaiacol in the same concentration” value is recorded as “faster complete reduction”. Further, the “antimicrobial activity of enhancing candidate only against S. aureus” value in the series with S. aureus (ATCC®6538™) is on record as “no antimicrobial activity”. The “reduction in absolute S. aureus counts compared to reference (enzymes only)” value in the series with S. aureus (ATCC®6538™) (enhancer 0.00125-0.0005%) is given as “faster complete reduction”; with S. aureus (ATCC®6538™) (enhancer 0.0025%), “immediate entire reduction”. The “reduction in absolute P. aeruginosa counts compared to reference and guaiacol solution” value in series [4] (enhancer 0.0025-0.00125%) and in series [4] (enhancer 0.01-0.005%) was “stronger reduction” in each case. Further, the “reduction in absolute A. niger counts compared to reference” value in series [5] is “stronger reduction”.

Take `C[C@@H](O)[C@H](N)C(=O)O` [Threonine, threonine]: the entries for the “MBC: GOX+LPO enzyme solution needed” value in series [1] (enhancer 0,1%), in series [1] (enhancer 1%) and in series [2] were 0.000625 % (v/v), 0.000156 % (v/v) and 0.000156 % (v/v), respectively. Besides, the “increase in MBC compared to reference” value in series [1] (enhancer 0,1%) amounted to 2 ×; in series [1] (enhancer 1%) it was 8 ×; in series [2] it was 2 ×. For the same molecule, in series [3], the “LogP (octanol/water partition coefficient)” value was “LogP = −2.94”. Besides, the “reduction in absolute S. aureus counts compared to guaiacol in the same concentration” value with S. aureus (ATCC®6538™) was “faster complete reduction”. Further, the “antimicrobial activity of enhancing candidate only against S. aureus” value in the series with S. aureus (ATCC®6538™) is listed as “no antimicrobial activity”. Moreover, the “reduction in absolute S. aureus counts compared to reference (enzymes only)” value with S. aureus (ATCC®6538™) (enhancer 0.00125-0.0005%) is “faster complete reduction”; in the series with S. aureus (ATCC®6538™) (enhancer 0.0025%) it was “immediate entire reduction”. Besides, the “reduction in absolute P. aeruginosa counts compared to reference” value in series [4] (enhancer 0,1%, 0,005%-0.000625% (v/v) GOX+LPO) is reported as “stronger reduction”; in series [4] (enhancer 1%, 0,005%-0.000156% (v/v) GOX+LPO), “stronger reduction”. Also, the “reduction in absolute A. niger counts compared to reference” value in series [5] is given as “stronger reduction”.
